We go through 21 molecules from US9777005B2 (Takeda Pharmaceutical Company Limited, priority 2012, dated 2017).

This assay addresses T1, human M1 receptor (hCHRM1) (Homo sapiens, UniProt P11229).
T1 construct: expressed in transfected cells; host or cells: CHO-K1
T1 sequence (P11229 1-460): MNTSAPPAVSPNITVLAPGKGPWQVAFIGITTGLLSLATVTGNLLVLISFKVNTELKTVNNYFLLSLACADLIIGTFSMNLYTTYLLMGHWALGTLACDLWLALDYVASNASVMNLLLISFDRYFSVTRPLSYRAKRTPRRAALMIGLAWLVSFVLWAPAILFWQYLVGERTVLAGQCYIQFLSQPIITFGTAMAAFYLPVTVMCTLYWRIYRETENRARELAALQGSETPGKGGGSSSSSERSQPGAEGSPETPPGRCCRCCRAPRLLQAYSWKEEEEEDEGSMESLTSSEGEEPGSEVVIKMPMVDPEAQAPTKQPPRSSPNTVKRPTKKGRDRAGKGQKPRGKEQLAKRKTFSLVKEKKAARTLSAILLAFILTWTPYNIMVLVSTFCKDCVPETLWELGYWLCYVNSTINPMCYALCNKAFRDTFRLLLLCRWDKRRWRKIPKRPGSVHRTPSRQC
Description: Measurement of M1 receptor positive allosteric modulator (M1PAM) activity, calcium fluorescence (FLIPRtetra) in CHO-K1 cells in the presence of acetylcholine at EC20. Type of assay: cell-based. The following applies: in the presence of acetylcholine at EC20 (final 0.6 nM), CHO-K1 cells expressing hCHRM1; for EC50: inflection point of M1PAM activity, read-out: IP value; for activity (%) at 10 μM: test compound 10 μM. The essentials:
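CHO-K1 cells expressing human M1 were loaded with Fluo-4 AM, and compound was added with acetylcholine at EC20 (final 0.6 nM). Calcium fluorescence was read on FLIPRtetra for 1 min. Activity was normalized to 1 μM acetylcholine (100%) and DMSO (0%), and the curve inflection point was reported as IP.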

Structures can show the parent of a compound that is named as a salt.

`Cc1cc(-c2ccc(CN3Cc4ccnc(O[C@@H]5CCC[C@H]5O)c4C3=O)cc2)ccn1` (single isomer, unassigned) [Example 242, 4-((trans-2-hydroxycyclopentyl)oxy)-2-(4-(2-methylpyridin-4-yl)benzyl)-1,2-dihydro-3H-pyrrolo[3,4-c]pyridin-3-one]: the EC50 came to 0.0082 µM and the “activity (%) at 10 μM” value is reported as 110%.

Turning to `NC(=O)c1ccc(CN2Cc3ccnc(Oc4ccc(CC(F)(F)F)cc4F)c3C2=O)cc1` [Example 458, 4-((4-(2-fluoro-4-(2,2,2-trifluoroethyl)phenoxy)-3-oxo-1,3-dihydro-2H-pyrrolo[3,4-c]pyridin-2-yl)methyl)benzamide], the EC50 was 0.012 µM and the “activity (%) at 10 μM” value was determined as 93%.

As for `Cn1cc(-c2ccc(CN3Cc4cccc(O[C@H]5CCC[C@@H]5O)c4C3=O)cc2)cn1` (relative stereo) [Example 4, 7-((trans-2-hydroxycyclopentyl)oxy)-2-(4-(1-methyl-1H-pyrazol-4-yl)benzyl)isoindolin-1-one], the EC50 came to 0.013 µM and the “activity (%) at 10 μM” value is 101%.

With `Cn1ccc(-c2ccc(CN3Cc4ccnc(OCC5CCCCO5)c4C3=O)cc2)n1` (stereo not drawn) [Example 253, 2-(4-(1-methyl-1H-pyrazol-3-yl)benzyl)-4-((tetrahydro-2H-pyran-2-yl)methoxy)-1,2-dihydro-3H-pyrrolo[3,4-c]pyridin-3-one], the EC50 was determined as 0.022 µM and the “activity (%) at 10 μM” value turned out to be 100%.

As to `CCNC(=O)c1ccc(CN2Cc3ccnc(Oc4ccc(C)cc4F)c3C2=O)c(F)c1` [Example 441, N-ethyl-3-fluoro-4-((4-(2-fluoro-4-methylphenoxy)-3-oxo-1,3-dihydro-2H-pyrrolo[3,4-c]pyridin-2-yl)methyl)benzamide], the EC50 came out at 0.044 µM and the “activity (%) at 10 μM” value stood at 100%.

`O=C1c2c(ccnc2O[C@@H]2CCCC[C@H]2O)CN1Cc1cc(F)ccc1F` (single isomer, unassigned) [Example 319, 2-(2,5-difluorobenzyl)-4-((trans-2-hydroxycyclohexyl)oxy)-1,2-dihydro-3H-pyrrolo[3,4-c]pyridin-3-one]: the EC50 worked out at 0.0091 µM and the “activity (%) at 10 μM” value stood at 104%.

Take `Cc1nn(C)cc1-c1ccc(CN2Cc3ccnc(OCCn4cccn4)c3C2=O)cc1` [Example 225, 2-(4-(1,3-dimethyl-1H-pyrazol-4-yl)benzyl)-4-(2-(1H-pyrazol-1-yl)ethoxy)-1,2-dihydro-3H-pyrrolo[3,4-c]pyridin-3-one]: the EC50 was found to be 0.051 µM and the “activity (%) at 10 μM” value was determined as 104%.

`Cc1nn(C)cc1-c1ccc(CN2Cc3ccnc(Oc4ccc(C(F)F)cc4F)c3C2=O)c(F)c1` [Example 381, 4-(4-(difluoromethyl)-2-fluorophenoxy)-2-(4-(1,3-dimethyl-1H-pyrazol-4-yl)-2-fluorobenzyl)-1,2-dihydro-3H-pyrrolo[3,4-c]pyridin-3-one]: the EC50 stood at 0.0078 µM and the “activity (%) at 10 μM” value was 103%.

For `Cc1cc(-c2ccc(CN3Cc4ccnc(Oc5c(F)cc(C#N)cc5F)c4C3=O)cc2)ccn1` [Example 376, 3,5-difluoro-4-((2-(4-(2-methylpyridin-4-yl)benzyl)-3-oxo-2,3-dihydro-1H-pyrrolo[3,4-c]pyridin-4-yl)oxy)benzonitrile], the EC50 amounted to 0.0069 µM and the “activity (%) at 10 μM” value turned out to be 106%.

Regarding `CCc1ccc(Oc2nccc3c2C(=O)N(Cc2ccc(C(N)=O)c(F)c2)C3)c(F)c1` [Example 445, 4-((4-(4-ethyl-2-fluorophenoxy)-3-oxo-1,3-dihydro-2H-pyrrolo[3,4-c]pyridin-2-yl)methyl)-2-fluorobenzamide], the EC50 came to 0.028 µM and the “activity (%) at 10 μM” value amounted to 100%.

For `O=C1c2c(cc(F)cc2O[C@H]2CCCC[C@@H]2O)CN1Cc1ccc(-n2cccn2)cc1` (relative stereo) [Example 244, 5-fluoro-7-((trans-2-hydroxycyclohexyl)oxy)-2-(4-(1H-pyrazol-1-yl)benzyl)isoindolin-1-one], the EC50 came to 0.016 µM and the “activity (%) at 10 μM” value turned out to be 104%.

With `CCCc1ccc(Oc2nccc3c2C(=O)N(Cc2ccc(C(=O)NC)nc2)C3)c(F)c1` [Example 455, 5-((4-(2-fluoro-4-propylphenoxy)-3-oxo-1,3-dihydro-2H-pyrrolo[3,4-c]pyridin-2-yl)methyl)-N-methylpyridine-2-carboxamide], the EC50 turned out to be 0.06 µM and the “activity (%) at 10 μM” value was 86%.

`Cc1cc(-c2ccc(CN3Cc4ccnc(Oc5ccc(Cl)cc5F)c4C3=O)cc2)ccn1` [Example 383, 4-(4-chloro-2-fluorophenoxy)-2-(4-(2-methylpyridin-4-yl)benzyl)-1,2-dihydro-3H-pyrrolo[3,4-c]pyridin-3-one]: the EC50 stood at 0.048 µM and the “activity (%) at 10 μM” value is listed as 86%.

`Cn1cc(-c2ccc(CN3Cc4cccc(O[C@H]5CCCC[C@@H]5O)c4C3=O)cn2)cn1` (relative stereo) [Example 27]: the EC50 is 0.0064 µM and the “activity (%) at 10 μM” value is 97%.

As to `O=C1c2c(cccc2O[C@H]2CCCC[C@@H]2O)CN1Cc1ccc(Br)cc1` (relative stereo) [Example 25, 2-(4-bromobenzyl)-7-((trans-2-hydroxycyclohexyl)oxy)isoindolin-1-one], the EC50 turned out to be 0.19 µM and the “activity (%) at 10 μM” value is listed as 113%.

Consider `CCc1cc(F)c(Oc2nccc3c2C(=O)N(Cc2ccc(-c4ccn(C)n4)cc2)C3)c(F)c1` [Example 430, 4-(4-ethyl-2,6-difluorophenoxy)-2-(4-(1-methyl-1H-pyrazol-3-yl)benzyl)-1,2-dihydro-3H-pyrrolo[3,4-c]pyridin-3-one], for which the EC50 was found to be 0.017 µM and the “activity (%) at 10 μM” value came out at 110%.

For `O=C1c2c(cccc2OCC2CCCO2)CN1Cc1ccc(-n2cccn2)cc1` (stereo not drawn) [Example 53, 2-(4-(1H-pyrazol-1-yl)benzyl)-7-((tetrahydrofuran-2-yl)methoxy)isoindolin-1-one], the EC50 was determined as 0.27 µM and the “activity (%) at 10 μM” value was determined as 90%.

With `Cc1cc(-c2ccc(CN3Cc4ccnc(O[C@@H]5CCC[C@H]5O)c4C3=O)cc2)ccn1` (single isomer, unassigned) [Example 259, 4-((trans-2-hydroxycyclopentyl)oxy)-2-(4-(2-methylpyridin-4-yl)benzyl)-1,2-dihydro-3H-pyrrolo[3,4-c]pyridin-3-one hydrochloride], the EC50 worked out at 0.085 µM. For the setting “hydrochloride”, the “activity (%) at 10 μM” value was found to be 109%.

In the case of `Cn1cc(-c2ccc(CN3Cc4cccc(Oc5c(F)cc(F)cc5C#N)c4C3=O)cc2)cn1` [Example 73], the EC50 turned out to be 0.024 µM and the “activity (%) at 10 μM” value came to 99%.

With `Cn1ccc(-c2ccc(CN3Cc4ccnc(Oc5ccc(C(C)(C)O)cc5F)c4C3=O)cc2)n1` [Example 413, 4-(2-fluoro-4-(2-hydroxypropan-2-yl)phenoxy)-2-(4-(1-methyl-1H-pyrazol-3-yl)benzyl)-1,2-dihydro-3H-pyrrolo[3,4-c]pyridin-3-one], the EC50 was 0.01 µM and the “activity (%) at 10 μM” value is 104%.

As for `Cn1cc(-c2ccc(CN3Cc4ccnc(OCc5ccccc5F)c4C3=O)cc2)nn1` [Example 332, 4-((2-fluorobenzyl)oxy)-2-(4-(1-methyl-1H-1,2,3-triazol-4-yl)benzyl)-1,2-dihydro-3H-pyrrolo[3,4-c]pyridin-3-one], the EC50 came to 0.017 µM and the “activity (%) at 10 μM” value is reported as 106%.
